This is an account of results in US20130184338A1, “PHENYLPROPYL CARBAMATE DERIVATIVES FOR USE IN PREVENTING OR TREATING MULTIPLE SCLEROSIS” (Bio-Pharm Solutions Co., Ltd., priority 2011, published 2013).

Each structure is given as a SMILES string.

The test system of test [1] is male mice (ICR). The experiment in a line: Muscle relaxation: endurance time on rotarod rotating at accelerated speed. It counts as in vivo. The settings on record: Mus musculus, ip; intraperitoneal, at time of maximum effect; 50% of activity vs vehicle only; read-out: MR test ED50, I = Acc. Rotarod. How it is done: (§1) For testing, male mice (ICR) were purchased from ORIENT BIO INC. (Korea), divided into several groups with 6 mice in each group, and were adapted for 4-5 days. The mice having the weight ranging from 19 g to 26 g were employed for the test. The pharmacological effect of the test compounds on muscle relaxation was evaluated by Rotarod test, grip strength test, and muscular force (wire hang) test. All mice were adapted to the test environment at one hour before starting the tests. The pharmacological effects of all the test compounds were evaluated by administration through peritoneal cavity of the mice (10 ul/g, bw).
At 24 hours before testing, the mice to be tested were preliminarily trained for 5 minutes on a rod rotating at the rate of 6 revolutions per a minute. The pharmacological effect on muscle relaxation of the test compounds were evaluated by observing the mice on a rod for 5 minutes, where the rod was accelerated from 4 to 40 revolutions per a minute during the test time. The endurance time that each mouse endures on the acceleratedly rotated rod without falling off from the rod was recorded. As test time for evaluation, a maximum of 5 minutes was applied. […] This experimentation was conducted according to the method described in the reference, ‘Monville et al. (2006) Comparison of incremental and accelerating protocol of the rotarod test for the assessment of motor deficits in the 6-OHDA model. J. Neurosci. Meth. 158: 219-223’.
(§2) The results of muscle relaxation activity of the phenyl carbamate compounds measured in above Experimental Examples 11.2 to 11.5 are shown in following Table 5.
For orientation: In the rotarod test animals must keep their balance on a rotating rod.

Test [2] deals with male mice (ICR). The experiment in a line: Muscle relaxation: residence time on rotarod rotating at fixed speed (15 r.p.m.). The following applies: Mus musculus, ip, read-out: MR test ED50, II = Fixed 15 r.p.m. Rotarod. It counts as in vivo.
Test [3] relates to male mice (ICR). The experiment in a line: Muscle relaxation: grip strength. It counts as in vivo. The settings on record: Mus musculus, ip; intraperitoneal, at time of maximum effect; 50% of activity vs vehicle only; read-out: MR test ED50, III = Grip strength. How it is done: as §1
A grip strength test using the test animals' forelimbs was performed using an instrument equipped with triangle ring and designed so as to easily grip with the forelimbs of experimental animals, manufactured from Ugo Basile Inc. (Ugo Basile, Model47106, Italy). The test was conducted before and after administration of the compounds to evaluate the effects thereof. […] The mouse was made to grip the rod with its forelimbs, and its tail was pulled, where the force at which the mouse detached from the rod was recorded. The instrument indicated the force in grams. All of the mice were given […] for test, and the 3 highest values among the test opportunities were selected and the mean value was used as the test result. This experimentation was conducted according to the method described in the reference, ‘Nevins et al. (1993) Quantitative grip strength assessment as a means of evaluating muscle relaxation in mice. Psychopharmacol. 110: 92-96’.
as §2

The test system of test [4] is male mice (ICR). The experiment in a line: Muscle relaxation: wire hang. The settings on record: Mus musculus; intraperitoneal, at time of maximum effect; 50% of activity vs vehicle only; read-out: MR test ED50, IV = Wire hang. The class given is in vivo. How it is done: as §1
This experimentation was conducted using a metal wire of 30 cm in length, which was suspended between two pillars at a height of about 40 cm from the bottom covered with a soft pad. […] Each mouse was made to grip the wire using two forelimbs, and the elapse time before the mouse fell off from the wire to the pad on the bottom was recorded in seconds. Each mouse was given 5 opportunities for this test at an interval of 2 minutes period. The highest 3 records among the test opportunities were selected and the mean value was used as the test result. This experimentation was conducted according to the method described in the reference, ‘Jacqueline N. Crawley (1999) Behavioral phenotyping of transgenic and knockout mice: experimental design and evaluation of general health, sensory functions, motor abilities, and specific behavioral tests. Brain Res. 835: 18-26’.
as §2

Test [5] has as its system male ICR mice. The experiment in a line: MES (Maximal Electroshock Seizure) test in mice. The settings on record: Mus musculus, po; for ED50: read-out: MES test (po) ED50.
Where [6] appears, read: intraperitoneal, at time of maximum effect, 50% of activity vs vehicle only.
[7] abbreviates: read-out: MES test (po) Protection %.

What is called ED50 is the dose that gives a 50% effect, or the effect in half of the subjects. Consider `CC(OC(N)=O)C(O)c1ccccc1Cl` (racemic) [Compound 3, 1-(2-chlorophenyl)-1-hydroxypropyl-2-carbamate], for which the ED50 was determined as 57.1 mg/kg in test [1]; 47.7 mg/kg in test [2] (setting [6]); 72.6 mg/kg in test [3]; 34 mg/kg in test [4]; 31.4 mg/kg in test [5].

Regarding `CNC(=O)OC(C)C(O)c1ccccc1Cl` (racemic) [Compound 29, 1-(2-chlorophenyl)-1-hydroxypropyl-2-N-methylcarbamate], the ED50 in test [1] is 30.2 mg/kg; in test [2] (setting [6]) it was 41 mg/kg; in test [3], 46 mg/kg; in test [4], 38 mg/kg. The responders at 200 mg/kg in test [5] (setting [7]) worked out at 75%.

Turning to `C[C@@H](OC(=O)NC1CC1)[C@H](O)c1ccccc1Cl` (single isomer, unassigned) [Compound 25], the ED50 in test [1] was 30 mg/kg; in test [2] (setting [6]), 18.3 mg/kg; in test [3], 46.1 mg/kg; in test [4] it was 32.9 mg/kg. Besides, the responders at 200 mg/kg in test [5] (setting [7]) came out at 25%.

Turning to `C[C@@H](OC(N)=O)[C@H](O)c1ccccc1Cl` [Compound 2, 1-(2-chlorophenyl)-(R)-1-hydroxypropyl-(R)-2-carbamate], the ED50 in test [1] is 66.3 mg/kg; in test [2] (setting [6]) it was 76.5 mg/kg; in test [3] it was 110 mg/kg; in test [4], 43.3 mg/kg; in test [5], 51 mg/kg.

With `C[C@@H](OC(N)=O)[C@@H](O)c1ccccc1Cl` [Compound 4, 1-(2-chlorophenyl)-(S)-1-hydroxypropyl-(R)-2-carbamate], the ED50 was 69.3 mg/kg in test [1]; 65 mg/kg in test [2] (setting [6]); 124 mg/kg in test [3]; 40 mg/kg in test [4]; 82.4 mg/kg in test [5].

Turning to `C[C@H](OC(N)=O)[C@H](O)c1ccccc1Cl` [Compound 5, 1-(2-chlorophenyl)-(R)-1-hydroxypropyl-(S)-2-carbamate], the ED50 in test [1] is 66.9 mg/kg; in test [2] (setting [6]), 65.5 mg/kg; in test [3], 95 mg/kg; in test [4] it was 52.5 mg/kg; in test [5], 84.1 mg/kg.

In the case of `CNC(=O)O[C@@H](C)[C@@H](O)c1ccccc1Cl` [Compound 15, 1-(2-chlorophenyl)-(S)-1-hydroxypropyl-(S)-2-N-methylcarbamate], the median effective dose (ED50) amounted to 51.4 mg/kg in test [1], 42.8 mg/kg in test [2] (setting [6]), 83.6 mg/kg in test [3] and 25.4 mg/kg in test [4]. Moreover, the responders at 100 mg/kg in test [5] (setting [7]) is 75%.

With `CCCNC(=O)O[C@@H](C)[C@@H](O)c1ccccc1Cl` [Compound 16, 1-(2-chlorophenyl)-(S)-1-hydroxypropyl-(S)-2-N-propylcarbamate], the 50% effective dose (ED50) in test [1] stood at 48.7 mg/kg; in test [2] (setting [6]), 61.6 mg/kg; in test [3] it was 67.8 mg/kg; in test [4] it was 16.1 mg/kg. Besides, the responders at 200 mg/kg in test [5] (setting [7]) came out at 25%.

As to `CC(C)NC(=O)O[C@@H](C)[C@@H](O)c1ccccc1Cl` [Compound 17, 1-(2-chlorophenyl)-(S)-1-hydroxypropyl-(R)-2-N-isopropylcarbamate], the ED50 in test [1] was found to be 73.1 mg/kg; in test [2] (setting [6]), 66.4 mg/kg; in test [3] it was 91.5 mg/kg; in test [4], 41.4 mg/kg.

Take `C[C@H](OC(=O)NC1CC1)[C@@H](O)c1ccccc1Cl` [Compound 18, 1-(2-chlorophenyl)-(S)-1-hydroxypropyl-(R)-2-N-cyclopropylcarbamate]: the 50% effective dose (ED50) in test [1] came to 59.2 mg/kg; in test [2] (setting [6]) it was 61.2 mg/kg; in test [3] it was 87.4 mg/kg; in test [4], 29.5 mg/kg. The responders at 200 mg/kg in test [5] (setting [7]) was determined as 100%.

Regarding `CNC(=O)O[C@H](C)[C@H](O)c1ccccc1Cl` [Compound 22, 1-(2-chlorophenyl)-(R)-1-hydroxypropyl-(R)-2-N-methylcarbamate], the ED50 in test [1] was found to be 25.7 mg/kg; in test [2] (setting [6]), 25.1 mg/kg; in test [3], 28.3 mg/kg; in test [4], 22.4 mg/kg.

Turning to `CC(C)NC(=O)O[C@H](C)[C@H](O)c1ccccc1Cl` [Compound 24, 1-(2-chlorophenyl)-(R)-1-hydroxypropyl-(R)-2-N-isopropylcarbamate], the 50% effective dose (ED50) in test [1] is 38.6 mg/kg; in test [2] (setting [6]), 44.3 mg/kg; in test [3] it was 48.8 mg/kg; in test [4], 17.8 mg/kg.

As to `C[C@H](OC(N)=O)[C@@H](O)c1ccccc1I` [Compound 65, 1-(2-iodophenyl)-(S)-1-hydroxypropyl-(S)-2-carbamate], the ED50 in test [2] turned out to be 28 mg/kg; in test [3], 42.9 mg/kg; in test [4] it was 23.4 mg/kg.

Turning to `C[C@@H](OC(N)=O)[C@H](O)c1ccccc1I` [Compound 66, 1-(2-iodophenyl)-(R)-1-hydroxypropyl-(R)-2-carbamate], the 50% effective dose (ED50) in test [2] turned out to be 67.9 mg/kg; in test [3], 46 mg/kg; in test [4], 76.3 mg/kg.

For the molecule `CC[C@H](OC(N)=O)[C@@H](O)c1ccccc1I` [Compound 67, 1-(2-iodophenyl)-(S)-1-hydroxybutyl-(S)-2-carbamate], the values for the 50% effective dose (ED50) in test [2], in test [3] and in test [4] were 30.2 mg/kg, 69.1 mg/kg and 26.2 mg/kg, respectively.
